# Measured values published in ChEMBL document CHEMBL1156140, “Synthesis and antitumor-evaluation of cyclopropyl-containing combretastatin analogs” (Bioorg Med Chem Lett, 2009).
# Assays:
# [1] = tested on: HeLa; experiment: Cytotoxicity against human HeLa cells by MTT assay; format: functional, cell-based
# [2] = tested on: MCF7; experiment: Cytotoxicity against human MCF7 cells by MTT assay; format: functional, cell-based
SMILES,"IC50 ([1]; Homo sapiens, HeLa) [nM]","IC50 ([2]; Homo sapiens, MCF7) [nM]",IC50 ([1]; hela) [nM],IC50 ([2]; mcf7) [nM]
COc1ccc(/C=C\c2cc(OC)c(OC)c(OC)c2)cc1N,0.53,3.5,,
COc1ccc(C#Cc2cc(OC)c(OC)c(OC)c2)cc1O,1540,1640,,
COCOc1cc(C#Cc2cc(OC)c(OC)c(OC)c2)ccc1OC,26800,25600,,
COc1ccc(C2CC2c2cc(OC)c(OC)c(OC)c2)cc1NC(=O)[C@@H](N)CO (stereo not given in full) [listing 1 of 2 here],,,32,63
COc1ccc(C2CC2c2cc(OC)c(OC)c(OC)c2)cc1NC(=O)OC(C)(C)C (stereo not given),10100,11800,,
COc1ccc(C#Cc2cc(OC)c(OC)c(OC)c2)cc1NC(=O)OC(C)(C)C,> 30000,> 30000,,
COc1ccc(C2CC2c2cc(OC)c(OC)c(OC)c2)cc1OP(=O)(OCc1ccccc1)OCc1ccccc1 (stereo not given),10200,10800,,
COc1ccc(/C=C\c2cc(OC)c(OC)c(OC)c2)cc1OP(=O)(OCc1ccccc1)OCc1ccccc1,246,1170,,
COCOc1cc(C2CC2c2cc(OC)c(OC)c(OC)c2)ccc1OC (stereo not given),24000,14000,,
COc1ccc(/C=C\c2cc(OC)c(OC)c(OC)c2)cc1NC(=O)OC(C)(C)C,1170,3850,,
COc1ccc(C2CC2c2cc(OC)c(OC)c(OC)c2)cc1N (stereo not given),41,212,,
COCOc1cc(/C=C\c2cc(OC)c(OC)c(OC)c2)ccc1OC,197,269,,
COc1ccc(C#Cc2cc(OC)c(OC)c(OC)c2)cc1N,> 30000,> 30000,,
COc1ccc([C@@H]2C[C@@H]2c2cc(OC)c(OC)c(OC)c2)cc1O,28,102,,
COc1ccc(C2CC2c2cc(OC)c(OC)c(OC)c2)cc1NC(=O)[C@@H](N)CO (stereo not given in full) [listing 2 of 2 here],,,432,670
COc1ccc(C2CC2c2cc(OC)c(OC)c(OC)c2)cc1OP(=O)(O)O (stereo not given),370,297,,
COc1ccc(/C=C\c2cc(OC)c(OC)c(OC)c2)cc1NC(=O)[C@@H](N)CO,,,3.7,25
COc1ccc(/C=C\c2cc(OC)c(OC)c(OC)c2)cc1O [COMBRETASTATIN A4],0.51,2.4,,
COc1ccc(/C=C\c2cc(OC)c(OC)c(OC)c2)cc1OP(=O)(O)O [FOSBRETABULIN DISODIUM],0.43,2,,
COc1ccc(/C=C\c2cc(OC)c(OC)c(OC)c2)cc1NC(=O)[C@@H](N)CO [OMBRABULIN],,,0.72,3.1
